Test results from ChEMBL document CHEMBL5550114, “Disclosure of cinnamic acid/4,9-diaminoacridine conjugates as multi-stage antiplasmodial hits” (Bioorg Med Chem, 2024).
Activity calls are given as the source filed them. The calls are words filed in the database; no cut-off is given here.

Legend:
[1] = system: Plasmodium berghei; test: Antiplasmodial activity against GFP-Luccon-fused liver stage Plasmodium berghei infected in human Huh-7 cells assessed as parasitic growth inhibition at 1 uM measured after 48 hrs by bioluminescence assay; type: functional, organism-based
[2] = system: Plasmodium berghei; test: Antiplasmodial activity against GFP-Luccon-fused liver stage Plasmodium berghei infected in human Huh-7 cells assessed as parasitic growth inhibition at 10 uM measured after 48 hrs by bioluminescence assay; type: functional, organism-based
[3] = system: Huh-7; test: Cytotoxicity against human Huh-7 cells assessed as cell viability at 10 uM measured after 48 hrs by Alamar blue staining based analysis; type: toxicity; conditions: huh-7, 48 h
[4] = system: Plasmodium falciparum; test: Antiplasmodial activity against CQ-sensitive blood stage Plasmodium falciparum 3D7 infected in group B human erythrocytes assessed as parasitic growth inhibition measured after 48 hrs by flow cytometry; type: functional, organism-based; conditions: 3D7, Erythrocyte
[5] = system: Plasmodium falciparum; test: Antiplasmodial activity against gametocyte stage Plasmodium falciparum NF54-gexp02-Tom infected in group B human erythrocytes assessed as parasitic growth inhibition measured after 15 days by Geimsa staining based analysis; type: functional, organism-based; conditions: Erythrocyte, 360 h
[6] = system: Plasmodium falciparum; test: Antiplasmodial activity against CQ-sensitive blood stage Plasmodium falciparum 3D7 assessed as parasitic growth inhibition; type: functional, organism-based
[7] = system: Plasmodium berghei; test: Antiplasmodial activity against GFP-Luccon-fused liver stage Plasmodium berghei infected in human Huh-7 cells assessed as parasitic growth inhibition measured after 48 hrs by Alamar blue staining based analysis; type: functional, organism-based; conditions: Huh-7, 48 h

For CCN(CC)CCCC(C)Nc1ccnc2cc(Cl)ccc12 (stereo not drawn), the inhibition [1] was “inactive” and the inhibition [2] was “Active”.
With COc1ccc(/C=C/C(=O)NCCCCNc2cc(OC)cc3cc4ccc(Cl)cc4nc23)cc1 the inhibition [1] was “inactive” and the inhibition [2] was “Active”.
For CCN(CC)CCCNc1c2ccc(Cl)cc2nc2c(NCCCCNC(=O)/C=C/c3cccc(F)c3)cc(OC)cc12, the inhibition [1] was “inactive”, the Activity [3] was “Toxic” and the inhibition [2] was “Active”. The IC50 [4] was 161 nM and the IC50 [5] was ~430 nM.
For CCN(CC)CCCNc1c2ccc(Cl)cc2nc2c(NCCCCNC(=O)/C=C/c3ccc(OC)cc3)cc(OC)cc12, the inhibition [1] was “inactive”, the Activity [3] was “Toxic” and the inhibition [2] was “Active”. It also gave an IC50 [4] of 164 nM and an IC50 [5] of 474 nM.
For COc1cc(NCCCCNC(=O)/C=C/c2cccc(F)c2)c2nc3cc(Cl)ccc3cc2c1, the inhibition [1] was “inactive” and the inhibition [2] was “Active”.
In the case of CCN(CC)CCCNc1c2ccc(Cl)cc2nc2c(NCCCCN)cc(OC)cc12, the inhibition [1] is reported as “inactive”, the IC50 [6] is reported as 440 nM and the Activity [3] is reported as “Non-Toxic”. The inhibition [2] was “Active”.
COc1cc(NCCCCNC(=O)/C=C/c2ccccc2)c2nc3cc(Cl)ccc3cc2c1 was tested, and the inhibition [1] was “inactive” and the inhibition [2] was “Active”.
With CCN(CC)CCCC(C)Nc1c2ccc(Cl)cc2nc2c(NCCCCNC(=O)/C=C/c3cccc(F)c3)cc(OC)cc12 (stereo not drawn) the inhibition [1] was “inactive”, the Activity [3] was “Toxic” and the inhibition [2] was “Active”. For the same molecule, the IC50 [4] was 164 nM.
With CCN(CC)CCCNc1c2ccc(Cl)cc2nc2c(NCCCCNC(=O)/C=C/c3ccc(F)cc3)cc(OC)cc12 the inhibition [1] was “inactive”, the Activity [3] was “Toxic” and the inhibition [2] was “Active”. It also gave an IC50 [4] of 348 nM.
In the case of CCN(CC)CCCC(C)Nc1c2ccc(Cl)cc2nc2c(NCCCCNC(=O)/C=C/c3ccc(OC)cc3)cc(OC)cc12 (stereo not drawn), the inhibition [1] is reported as “inactive”, the Activity [3] is reported as “Toxic” and the inhibition [2] is reported as “Active”. The IC50 [4] was 153 nM.
CCN(CC)CCCC(C)Nc1c2ccc(Cl)cc2nc2c(NCCCCN)cc(OC)cc12 (stereo not drawn) was tested, and the inhibition [1] was “inactive”, the IC50 [6] was 680 nM and the Activity [3] was “Non-Toxic”. The IC50 [7] was 11000 nM and the inhibition [2] was “Active”.
In the case of CCN(CC)CCCC(C)Nc1c2ccc(Cl)cc2nc2c(NCCCCNC(=O)/C=C/c3ccc(F)cc3)cc(OC)cc12 (stereo not drawn), the inhibition [1] is reported as “inactive”, the Activity [3] is reported as “Toxic” and the inhibition [2] is reported as “Active”. For the same molecule, the IC50 [4] was 178 nM and the IC50 [5] was 645 nM.
CCN(CC)CCCNc1c2ccc(Cl)cc2nc2c(NCCCCNC(=O)/C=C/c3ccccc3)cc(OC)cc12 was tested, and the inhibition [1] was “inactive”, the Activity [3] was “Toxic” and the inhibition [2] was “Active”. It also gave an IC50 [4] of 80 nM.
With COc1cc(NCCCCNC(=O)/C=C/c2ccc(F)cc2)c2nc3cc(Cl)ccc3cc2c1 the inhibition [1] was “inactive” and the inhibition [2] was “Active”.
For COc1cc(NC(C)CCCN)c2ncccc2c1 (stereo not drawn) [PRIMAQUINE], the inhibition [1] was “inactive”, the inhibition [2] was “Active” and the IC50 [5] was 17700 nM.
With CCN(CC)CCCC(C)Nc1c2ccc(Cl)cc2nc2c(NCCCCNC(=O)/C=C/c3ccccc3)cc(OC)cc12 (stereo not drawn) the inhibition [1] was “inactive”, the Activity [3] was “Toxic” and the inhibition [2] was “Active”. The IC50 [4] was 143 nM and the IC50 [5] was 461 nM.
